Read-outs that look alike come from different tables or passages of the source.
How the values were obtained:
[1] = test system: HIV strain D (protease mutant); test: Antiviral spectrum, mutant HIV strain D; type: cell-based; conditions: FR=EC50(mutant strain)/EC50(HIV-1 strain LAI); calculated averages
Description: (§1) HIV- or mock-infected MT4 cells were incubated for five days in the presence of various concentrations of the inhibitor. At the end of the incubation period, all HIV-infected cells have been killed by the replicating virus in the control cultures in the absence of any inhibitor. Cell viability is measured by measuring the concentration of MTT, a yellow, water soluble tetrazolium dye that is converted to a purple, water insoluble formazan in the mitochondria of living cells only. Upon solubilization of the resulting formazan crystals with isopropanol, the absorbance of the solution is monitored at 540 nm. The values correlate directly to the number of living cells remaining in the culture at the completion of the five day incubation. The inhibitory activity of the compound was monitored on the virus-infected cells and was expressed as EC50 and EC90. These values represent the amount of the compound required to protect 50% and 90%, respectively, of the cells from the cytopathogenic effect of the virus. […] Wherever results are reported as e.g. pEC50 or pCC50 values, the result is expressed as the negative logarithm of the result expressed as EC50 or CC50 respectively. […]
(§2) As a measure of the broad spectrum activity of the present compounds, the fold resistance (FR), defined as FR=EC50(mutant strain)/EC50(HIV-1 strain LAI), was determined.

[2] = test system: HIV strain B (protease mutant); test: Antiviral spectrum, mutant HIV strain B; type: cell-based; conditions: FR=EC50(mutant strain)/EC50(HIV-1 strain LAI); calculated averages
Description: as §1, §2

[3] = test system: HIV strain C (protease mutant); test: Antiviral spectrum, mutant HIV strain C; type: cell-based; conditions: FR=EC50(mutant strain)/EC50(HIV-1 strain LAI); calculated averages
Description: as §1, §2

[4] = test system: HIV strain E (protease mutant); test: Antiviral spectrum, mutant HIV strain E; type: cell-based; conditions: FR=EC50(mutant strain)/EC50(HIV-1 strain LAI); calculated averages
Description: as §1, §2

[5] = test system: HIV strain F (protease mutant); test: Antiviral spectrum, mutant HIV strain F; type: cell-based; conditions: FR=EC50(mutant strain)/EC50(HIV-1 strain LAI); calculated averages
Description: as §1, §2

[6] = test system: HIV strain G (protease mutant); test: Antiviral spectrum, mutant HIV strain G; type: cell-based; conditions: FR=EC50(mutant strain)/EC50(HIV-1 strain LAI); calculated averages
Description: as §1, §2

[7] = Oral availability in the rat (serum concentration, LC-MS); type: in vivo; conditions: both sexes, 10 mg/kg
Description: The oral availability of a selected compound was evaluated in a standard set of kinetic experiments, primarily in male and female rats and secondarily in male and female dogs. The compound was formulated as a 20 mg/ml solution or suspension in DMSO, PEG400 or cyclodextin 40% (CD40%) in water. For most experiments in the rat, three dosing groups were formed: 1/single intraperitoneal dose at 20 mg/kg using the DMSO formulation; 2/single oral dose at 20 mg/kg using the PEG400 formulation and 3/single oral dose at 20 mg/kg using the cyclodextrin formulation. In the dog, only the oral route of administration was used. Blood was sampled at regular time intervals after dosing and drug concentrations in the serum were determined using a LC-MS bioanalytical method. Serum concentrations were expressed in […] after normalization to 10 mg/kg. Below, the serum concentration at 30 minutes and at 3 hours is listed as these values reflect the extent of absorption (30′) and the speed of elimination (180′). The oral bioavailability in the rat was examined using DMSO and PEG formulations (cfr supra). The serum concentration following administration of 10 mg/kg of compound 1 was 10.2 ng/ml at 30 min (DMSO) and 22.2 ng/ml (PEG). The intraperitoneal absorption of a dose of 10 mg/kg (DMSO formulation) was 2076 ng/ml 30 minutes (min) following administration and 208 ng/ml 180 min following administration.

[8] = test system: HIV strain A (protease mutant); test: Antiviral spectrum, mutant HIV strain A; type: cell-based; conditions: FR=EC50(mutant strain)/EC50(HIV-1 strain LAI); calculated averages
Description: as §1, §2

[9] = Toxicity on mock-infected MT4 cells (MTT); type: cell-based; conditions: human
Description: HIV- or mock-infected MT4 cells were incubated for five days in the presence of various concentrations of the inhibitor. At the end of the incubation period, all HIV-infected cells have been killed by the replicating virus in the control cultures in the absence of any inhibitor. Cell viability is measured by measuring the concentration of MTT, a yellow, water soluble tetrazolium dye that is converted to a purple, water insoluble formazan in the mitochondria of living cells only. Upon solubilization of the resulting formazan crystals with isopropanol, the absorbance of the solution is monitored at 540 nm. The values correlate directly to the number of living cells remaining in the culture at the completion of the five day incubation. The inhibitory activity of the compound was monitored on the virus-infected cells and was expressed as EC50 and EC90. These values represent the amount of the compound required to protect 50% and 90%, respectively, of the cells from the cytopathogenic effect of the virus. […] Wherever results are reported as e.g. pEC50 or pCC50 values, the result is expressed as the negative logarithm of the result expressed as EC50 or CC50 respectively.
as §2

HIV-1 strain LAI = test: Cellular anti-HIV assay (MT4 cells, MTT), wild type strain; type: cell-based
Description: The compounds of the present invention were examined for anti-viral activity in a cellular assay. […] The cellular assay was performed according to the following procedure.
HIV- or mock-infected MT4 cells were incubated for five days in the presence of various concentrations of the inhibitor. At the end of the incubation period, all HIV-infected cells have been killed by the replicating virus in the control cultures in the absence of any inhibitor. Cell viability is measured by measuring the concentration of MTT, a yellow, water soluble tetrazolium dye that is converted to a purple, water insoluble formazan in the mitochondria of living cells only. Upon solubilization of the resulting formazan crystals with isopropanol, the absorbance of the solution is monitored at 540 nm. The values correlate directly to the number of living cells remaining in the culture at the completion of the five day incubation. The inhibitory activity of the compound was monitored on the virus-infected cells and was expressed as EC50 and EC90. […] Wherever results are reported as e.g. pEC50 or pCC50 values, the result is expressed as the negative logarithm of the result expressed as EC50 or CC50 respectively.
as §2

Compound | FR towards mutant D [1] | FR towards mutant B [2] | FR towards mutant C [3] | FR towards mutant E [4] | FR towards mutant F [5] | FR towards mutant G [6] | concentration at 30 min ([7]; ip, intraperitoneal, DMSO formulation, 30 min following administration, read-out: intraperitoneal absorption (serum concentration)) | concentration at 180 min ([7]; ip, intraperitoneal, DMSO formulation, 180 min following administration, read-out: intraperitoneal absorption (serum concentration)) | concentration at 30 min ([7]; po, oral, DMSO formulation, at 30 min, read-out: serum concentration) | concentration at 30 min ([7]; po, oral, PEG formulation, read-out: serum concentration) | FR towards mutant A [8] | CC50 at 5 days [9] | EC50 (HIV-1 strain LAI; Human immunodeficiency virus 1, calculated averages, read-out: WT (pEC50) (converted)) | WT (pEC50) (HIV-1 strain LAI; calculated averages)
CC(C)CN(C[C@@H](O)[C@H](Cc1ccccc1)NC(=O)O[C@H]1CO[C@H]2OCC[C@H]21)S(=O)(=O)c1ccc2onc(N)c2c1 [Compound 1, {3-[(3-Amino-benzo[d]isoxazole-5-sulfonyl)-isobutyl-amino]-1-benzyl-2-hydroxy-propyl}-carbamic acid hexahydro-furo[2,3-b]furan-3-yl ester] | 0.35 | 0.78 | 0.49 | 0.30 | 0.85 | 6.9 | 2080 ng/mL | 208 ng/mL | 10.2 ng/mL | 22.2 ng/mL | 0.63 | > 100000 nM | 7.94 nM | –
5-Methyl-isoxazole-4-carboxylic acid{3-[(3-amino-benzo[d]isoxazole-5-sulfonyl)-isobutyl-amino]-1-benzyl-2-hydroxy-propyl}-amide [Compound 6] | 16 | 5.6 | 5.5 | 7.2 | 16 | 16 | – | – | – | – | 16 | – | – | 6.2
